Data as given in US20040247586A1, “Parkin-associated complex for protecting post-mitotic neurons from excitotoxicity and uses thereof” (priority 2003, published 2004).

Key:
Format in all cases: cell-based, mouse
[1] = tested on: dissociated cortical neurons from E16.5 mice; assay: parkin siRNA knockdown in kainate-treated primary cortical cultures, Western blot; settings: 25 nM siRNA, then 500 μM kainate 24 h
Description: (A) Insect cells were co-infected with baculoviruses expressing Flag-hSel-10 (110 kDa) or Flag-β-TrCP, GST-parkin, HA-CDK2, and either His6-cyclin E or His6-cyclin A1 (50 kDa). Cyclin-E- or cyclin-A1-associated complexes were isolated from cell lysates by nickel-agarose pull-downs, and analyzed by Western blotting, as indicated. (B) Flag-parkin-associated complexes (immunoprecipitated from HeLa cells transfected with Flag-tagged wild-type or T240R mutant parkin) were incubated with recombinant His6-cyclin E, HA-CDK2, E1, UbcH7, and ubiquitin, in the presence of an ATP-regenerating system. Recombinant His6-cyclin E generated in insect cells appears as a 51 -kDa band (arrow) and a minor contaminating species at 95-kDa. The asterisk indicates the position of an immunoglobulin heavy chain. (C) Parkin deficiency leads to cyclin E accumulation. Dissociated cortical neurons from E16.5 mice were cultured as described (see Examples), transfected with 25 nM parkin siRNA or control (DAT) siRNA, and then treated for 24 h with 500 μM kainate. […]
(§1) Cerebellar granule neurons from P6 mice were purified and transfected essentially as described (Scheiffele et al., Neuroligin expressed in nonneuronal cells triggers presynaptic development in contacting axons. Cell, 101:657-69, 2000). […] Cells were treated for 24 h with or without kainate (250 or 500 μM as indicated; Sigma) or MPP^+ (1 or 10 μM as indicated; Sigma), stained for 20 min with 0.5 μg/ml Hoechst 33342 (Sigma), and visualized by fluorescence microscopy. For granule cell assays, at least 100 cells in two 20× fields were scored in duplicate for GFP and/or Hoechst signal. […] Cells were washed, incubated for 1 h at room temperature with appropriately-labeled secondary antibodies, and visualized by fluorescence microscopy. For midbrain culture experiments, DAT-specific immunoreactivity (pixels), and cytoplasmic parkin and cyclin E immunoreactivity (mean pixel density), were quantified in triplicate, across nine fields of view, at 20× using Image software (Scion). […]

[2] = tested on: E13.5 primary culture midbrain dopamine neurons; assay: parkin siRNA knockdown in primary midbrain dopamine neuron cultures with kainate or MPP+, immunofluorescence and Hoechst
Description: Dissociated midbrain cultures from El 3.5 mice were prepared as described (see Examples), transfected with 25 nM parkin or control (SERT) siRNA, and treated for 24 h with 250 μM kainate (A-X) or 1 μM MPP^+ (U—X). Cells were treated with Hoechst dye, fixed, and stained with rabbit polyclonal antibodies against either mouse parkin or cyclin E (green) and a rat monoclonal antibody against DAT (red). Immunostaining and apoptotic nuclei were visualized by fluorescence microscopy. Arrows point to examples of DAT-positive, cyclin-E-positive neurons (S) and DAT-positive neurons with apoptotic (Hoechst-positive) nuclei (I, J, and T). Total DAT-specific immunoreactivity (pixels), across 9 fields of view at 20×, was quantified in triplicate using Image software (Scion). Cytoplasmic parkin and cyclin E immunoreactivity (mean pixel density), in DAT-positive neurons, were similarly quantified. Data are shown as the mean±SEM. Statistical significance was assessed using one-way ANOVA with Tukey-Kramer post-hoc tests between each group. *=p<0.01; scale bar=150 μm
FIG. 10 further illustrates parkin/cyclin E interaction. […] Total RNA was extracted from granule cell cultures transfected with parkin or vector alone (see FIG. 5), and from frontal cortex tissue from parkin-deficient ARPD (or age-matched control; see FIG. 4). Cyclin E and β-actin mRNA levels were determined by quantitative RT-PCR, as described (Troy et al., Death in the balance: alternative participation of the caspase-2 and -9 pathways in neuronal death induced by nerve growth factor deprivation. J. Neurosci., 21:5007-16, 2001). (B-D) Both cyclin E immunoreactivity (p<0.05) and apoptosis (p<0.05) are increased in DAT-negative neurons of primary midbrain cultures treated with parkin siRNA (and kainate) relative to control siRNA (and kainate). However, the increased cyclin E immunoreactivity and apoptosis are both less marked than in DAT-positive neurons (p<0.05 for both measures). DAT-negative neurons in midbrain cultures were analyzed as in FIG. 7; DAT-positive neuron data is from FIG. 7. Cytoplasmic parkin and cyclin E immunoreactivity (mean pixel density) in DAT-negative neurons were quantified in triplicate, across 9 fields of view at 20×. Data are shown as the mean±SEM. Statistical significance was assessed using one-way ANOVA with Tukey-Kramer post-hoc tests between each group. *=p<0.01; **=p<0.05; scale bar=150 μm (E-J) Human parkin lentiviral vectors efficiently infect cultured murine midbrain dopamine neurons. E13.5 murine midbrain cultures were infected with lentiviruses encoding human parkin or control (GFP), as described in FIG. 8.
Cerebellar granule neurons from P6 mice were purified and transfected essentially as described (Scheiffele et al., Neuroligin expressed in nonneuronal cells triggers presynaptic development in contacting axons. Cell, 101:657-69, 2000). Dissociated cortical neurons from E16.5 mice were prepared and cultured as described (Scheiffele et al., Neuroligin expressed in nonneuronal cells triggers presynaptic development in contacting axons. Cell, 10 1:657-69, 2000). Primary midbrain cultures were prepared from E13.5 mouse embryos, as described (Hynes et al., Induction of midbrain dopaminergic neurons by Sonic hedgehog. Neuron, 15:35-44, 1995). Cells were treated for 24 h with or without kainate (250 or 500 μM as indicated; Sigma) or MPP^+ (1 or 10 μM as indicated; Sigma), stained for 20 min with 0.5 μg/ml Hoechst 33342 (Sigma), and visualized by fluorescence microscopy. For granule cell assays, at least 100 cells in two 20× fields were scored in duplicate for GFP and/or Hoechst signal. For immunohistochemistry, cell cultures were washed twice with PBS, and fixed for 20 min with 4% (w/v) paraformaldehyde. Cells were blocked for 1 h, at room temperature, with 3% (v/v) goat serum in PBS, and then incubated overnight, at 4° C., with specific antibodies, as indicated. […]

[3] = tested on: cerebellar granule cells from P6 mice; assay: parkin overexpression in kainate-treated cerebellar granule cells, cyclin E by Western blot / immunofluorescence / RT-PCR; settings: kainate 500 μM for 24 h
Description: Cerebellar granule cells from post-natal day 6 (P6) mice were transfected in suspension with a bicistronic expression plasmid for wild-type parkin (along with GFP) or with vector (GFP alone), cultured at a density of 75,000 cells/cm^2 for 72 h, and then treated with or without 500 μM kainate for 24 h. (A) Cells were extracted directly with loading buffer, and lysates were analyzed by Western blotting, as indicated. (B-M) Granule cell cultures were fixed, stained with a specific antibody against cyclin E, and then visualized by fluorescence microscopy for cyclin E (red) and GFP (green). […]
as §1, with “microscopy.” for “microscopy. For midbrain culture experiments, DAT-specific immunoreactivity (pixels), and cytoplasmic parkin and cyclin E immunoreactivity (mean pixel density), were quantified in triplicate, across nine fields of view, at 20× using Image software (Scion).”

“5′ UUCCAAACCGG AUGAGUGGdTdT 3′ [parkin siRNA]” was tested. Which “cleaved-PARP, marker of apoptosis (Western blot)” value [1] did it give?
The value was “accumulation of cleaved poly (ADP-ribose) polymerase”.

And the “cyclin E accumulation (Western blot)” value ([1]; vs control (DAT) siRNA)?
The value was “increased accumulation of cyclin E”.

And the “parkin protein expression (Western blot)” value ([1]; vs control (DAT) siRNA)?
The value was “significantly reduced parkin expression”.

What about the “cyclin E accumulation in DAT-positive neurons” value ([2]; 25 nM siRNA, 250 μM kainate 24 h, vs control (SERT) siRNA) of the same compound?
Its value is “increased accumulation of cyclin E”.

What about the “apoptosis of DAT-positive neurons (Hoechst)” value ([2]; 25 nM siRNA, 250 μM kainate 24 h, vs control siRNA) of the same compound?
Its value is “increased apoptosis”.

What about the “DAT immunoreactivity in cell bodies and processes” value ([2]; 25 nM siRNA, in the presence of kainate, vs control siRNA) of the same compound?
The value was “decreased DAT immunoreactivity”.

What about the “kainate sensitivity of DAT-negative neurons (cyclin E induction and apoptosis)” value ([2]; DAT-negative (primarily GABAergic) neurons vs DAT-positive population, p<0.05) of the same compound?
Its value is “did sensitize DAT-negative neurons to kainate toxicity, but to a significantly lesser extent”.

And the “dopamine neuron sensitivity to MPP+” value ([2]; MPP+ 10 μM)?
Its value is “failed to alter dopamine neuron sensitivity”.

And the “cyclin E or DAT immunoreactivity, siRNA alone” value ([2]; in the absence of kainate)?
Its value is “failed to alter cyclin E or DAT immunoreactivity”.

For `C[n+]1ccc(-c2ccccc2)cc1` [MPP^+, 1-Methyl-4-phenylpyridinium, reference compound], which “DAT immunoreactivity after toxin” value ([2]; MPP+ 10 μM, control siRNA-treated cultures) is on record?
The value was “led to a reduction in DAT immunoreactivity comparable to the kainate treatment”.

With `C=C(C)[C@H]1CN[C@H](C(=O)O)[C@H]1CC(=O)O` [kainate, kainic acid] as the compound, how does the “cyclin E accumulation in granule cell cultures after toxin” value [3] read?
Its value is “led to the accumulation of cyclin E”.
